Measurements: ChEMBL document CHEMBL6074635, “Replacement of the essential nitro group by electrophilic warheads towards nitro-free antimycobacterial benzothiazinones” (Eur J Med Chem, 2024)

How the values were obtained:
[1] = biological target: T1, Decaprenylphosphoryl-beta-D-ribose oxidase (Mycobacterium tuberculosis (strain ATCC 25618 / H37Rv)) (UniProt P9WJF1); experiment: Substrate activity at recombinant Mycobacterium tuberculosis DprE1 extracted from Escherichia coli BL21(DE3) assessed as fold change in Km incubated for 60 mins by resazurin dye based fluorescence plate reader analysis relative to FPR
T1 sequence (whole entry): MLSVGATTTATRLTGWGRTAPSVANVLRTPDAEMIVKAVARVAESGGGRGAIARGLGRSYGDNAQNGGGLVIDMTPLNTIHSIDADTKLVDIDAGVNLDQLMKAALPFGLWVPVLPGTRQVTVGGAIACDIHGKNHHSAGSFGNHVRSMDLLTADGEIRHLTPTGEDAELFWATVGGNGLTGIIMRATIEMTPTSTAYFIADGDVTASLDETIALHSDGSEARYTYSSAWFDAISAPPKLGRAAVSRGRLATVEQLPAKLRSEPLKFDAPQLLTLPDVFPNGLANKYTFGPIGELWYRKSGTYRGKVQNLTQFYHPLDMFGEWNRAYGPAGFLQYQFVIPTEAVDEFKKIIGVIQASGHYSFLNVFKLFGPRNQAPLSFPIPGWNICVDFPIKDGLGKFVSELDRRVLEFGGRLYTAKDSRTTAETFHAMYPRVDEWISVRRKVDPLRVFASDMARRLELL

[2] = biological target: T1, Decaprenylphosphoryl-beta-D-ribose oxidase (Mycobacterium tuberculosis (strain ATCC 25618 / H37Rv)); experiment: Reversible inhibition of recombinant Mycobacterium tuberculosis DprE1 extracted from Escherichia coli BL21(DE3) using FPR/GGPR as substrate by measuring fold change incubated for 60 mins by resazurin dye based fluorescence plate reader analysis relative to (S)-2-Fluoro-N-(2-(2-methyl-1,4-dioxa-8-azaspiro[4.5]decan-8-yl)-4-oxo-6-(trifluoromethyl)-4H-benzo[e][1,3]thiazin-8-yl)acrylamide
[3] = biological target: T1, Decaprenylphosphoryl-beta-D-ribose oxidase (Mycobacterium tuberculosis (strain ATCC 25618 / H37Rv)); experiment: Covalent inhibition of recombinant Mycobacterium tuberculosis DprE1 extracted from Escherichia coli BL21(DE3) assessed as inactivation rate constant (Kinact) using FPR/GGPR as substrate incubated for 60 mins by resazurin dye based fluorescence plate reader analysis
[4] = biological target: T1, Decaprenylphosphoryl-beta-D-ribose oxidase (Mycobacterium tuberculosis (strain ATCC 25618 / H37Rv)); experiment: Covalent inhibition of recombinant Mycobacterium tuberculosis DprE1 extracted from Escherichia coli BL21(DE3) assessed as Kinact/Ki ratio using FPR/GGPR as substrate incubated for 60 mins by resazurin dye based fluorescence plate reader analysis

SMILES: CC(C)=CCC/C(C)=C/CC/C(C)=C/CC/C(C)=C/COP(=O)(O)OC1O[C@H](CO)[C@@H](O)[C@H]1O (some centres undefined)
- fold change (FC) [1]: 22

SMILES: C=CS(=O)(=O)Nc1cc(C(F)(F)F)cc2c(=O)nc(N3CCC4(CC3)OC[C@H](C)O4)sc12
- fold change (FC) [2]: 8

SMILES: C[C@H]1COC2(CCN(c3nc(=O)c4cc(C(F)(F)F)cc(NC(=O)C(C)(C)Br)c4s3)CC2)O1
- Kinact [3]: 0.067 min⁻¹
- Ratio [4]: 2.13 M⁻¹ s⁻¹
